Measurements: ChEMBL document CHEMBL2169838, “Synthesis and biological evaluation of the 1-arylpyrazole class of σ(1) receptor antagonists: identification of 4-{2-[5-methyl-1-(naphthalen-2-yl)-1H-pyrazol-3-yloxy]ethyl}morpholine (S1RA, E-52862)” (J Med Chem, 2012)

Assays:
[1] = Intrinsic clearance in human liver microsomes assessed as per mg of protein at 10 uM; type: ADME, Microsome; details: read-out: CLH
[2] = Displacement of [3H]di-o-tolylguanidine from sigma 2 receptor in guinea pig brain membranes after 120 mins by scintillation counter; type: cell membranes, Cavia porcellus, Membrane
[3] = target: Sigma non-opioid intracellular receptor 1 (Homo sapiens, UniProt Q99720); experiment: biochemical
Description: Displacement of [3H](+)pentazocine from human sigma 1 receptor transfected in HEK293 cell membranes after 120 mins by scintillation counter

[4] = tested on: Mus musculus; experiment: Analgesic activity in CD1 mouse assessed as inhibition of capsaicin-induced mechanical hypersensitivity at 16 mg/kg, ip administered 15 mins prior to capsaicin challenge measured 30 mins post capsaicin challenge; type: functional; details: route intraperitoneal
[5] = target: Voltage-gated inwardly rectifying potassium channel KCNH2 (Homo sapiens, UniProt Q12809)
Voltage-gated inwardly rectifying potassium channel KCNH2, sequence (Q12809 whole entry): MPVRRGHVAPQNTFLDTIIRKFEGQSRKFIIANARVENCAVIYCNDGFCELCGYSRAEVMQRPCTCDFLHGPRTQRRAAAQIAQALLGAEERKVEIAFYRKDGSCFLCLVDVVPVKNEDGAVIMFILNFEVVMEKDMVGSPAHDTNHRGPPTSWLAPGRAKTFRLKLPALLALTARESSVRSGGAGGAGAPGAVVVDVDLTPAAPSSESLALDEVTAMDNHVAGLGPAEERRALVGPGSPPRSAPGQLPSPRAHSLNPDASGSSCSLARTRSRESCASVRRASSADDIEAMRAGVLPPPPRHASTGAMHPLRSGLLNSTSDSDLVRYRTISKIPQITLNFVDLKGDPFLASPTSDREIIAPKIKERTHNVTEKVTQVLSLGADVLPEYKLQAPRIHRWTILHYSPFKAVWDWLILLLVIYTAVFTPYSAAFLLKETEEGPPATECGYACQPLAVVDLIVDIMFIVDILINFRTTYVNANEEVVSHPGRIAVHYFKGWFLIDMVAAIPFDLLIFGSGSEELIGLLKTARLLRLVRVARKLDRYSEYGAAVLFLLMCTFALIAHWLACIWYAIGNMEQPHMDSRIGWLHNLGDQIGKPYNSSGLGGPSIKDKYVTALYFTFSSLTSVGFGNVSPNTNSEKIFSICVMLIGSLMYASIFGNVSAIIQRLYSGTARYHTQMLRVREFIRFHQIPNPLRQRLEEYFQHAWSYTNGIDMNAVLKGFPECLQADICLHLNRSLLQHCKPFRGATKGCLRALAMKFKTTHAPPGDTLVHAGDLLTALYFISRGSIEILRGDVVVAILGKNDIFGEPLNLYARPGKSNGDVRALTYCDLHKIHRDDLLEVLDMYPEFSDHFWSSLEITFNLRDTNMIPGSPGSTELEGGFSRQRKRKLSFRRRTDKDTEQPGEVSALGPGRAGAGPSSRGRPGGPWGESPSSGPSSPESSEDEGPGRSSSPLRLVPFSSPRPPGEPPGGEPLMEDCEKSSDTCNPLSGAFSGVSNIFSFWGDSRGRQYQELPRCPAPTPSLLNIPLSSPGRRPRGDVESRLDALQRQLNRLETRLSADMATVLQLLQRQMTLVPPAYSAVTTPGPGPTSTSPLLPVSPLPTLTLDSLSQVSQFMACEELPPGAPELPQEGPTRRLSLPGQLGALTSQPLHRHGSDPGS
Description: Inhibition of human ERG transfected in HEK293 cell membranes by whole cell patch clamp assay

Sigma non-opioid intracellular receptor 1, sequence (Q99720 whole entry): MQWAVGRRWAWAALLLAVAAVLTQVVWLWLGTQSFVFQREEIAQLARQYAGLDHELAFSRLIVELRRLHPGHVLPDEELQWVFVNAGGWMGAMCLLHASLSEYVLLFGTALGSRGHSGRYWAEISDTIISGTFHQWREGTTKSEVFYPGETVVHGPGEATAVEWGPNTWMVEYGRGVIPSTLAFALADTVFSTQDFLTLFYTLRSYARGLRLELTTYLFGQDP

Row | Structure (SMILES) | microsomal CLint at 10 µM [1] [µL/min/mg] | Ki [2] [µM] | Ki [3] [µM] | inhibition in vivo at 16 mg/kg [4] [%] | IC50 [5] [µM]
1 | Cc1cc(OCCN2CCOCC2)nn1-c1ccc(Cl)cc1Cl | 25 | > 1 | 0.044 | – | –
2 | CC(C)c1cc(OCCN2CCOCC2)nn1-c1ccc(Cl)c(Cl)c1 | – | > 1 | 0.172 | – | –
3 | CCN(CC)CCOc1cc(C)n(-c2ccc3ccccc3c2)n1 | – | 0.589 | 0.047 | – | –
4 | Cc1cc(OCCN2CCC(C)CC2)nn1-c1ccc(Cl)c(Cl)c1 | – | 0.161 | 0.0084 | – | –
5 | Clc1ccc(-n2ccc(NCCN3CCOCC3)n2)cc1Cl | – | 0.562 | 0.0394 | – | –
6 | Clc1ccc(-n2ccc(OCCN3CCCC3)n2)cc1Cl | – | 0.0237 | 0.0157 | – | –
7 | COCCN(C)CCCCOc1ccn(-c2ccc(Cl)c(Cl)c2)n1 | – | 0.0663 | 0.0082 | – | –
8 | Cc1cc(OCCn2ccnc2)nn1-c1ccc(Cl)c(Cl)c1 | – | > 1 | 0.294 | – | –
9 | CN1CCN(CCc2ccc(Cl)c(Cl)c2)CC1 | – | 0.318 | 0.0063 | – | –
10 | Cc1cc(OCCN2CCOCC2=O)nn1-c1ccc2ccccc2c1 | – | > 1 | > 1 | – | –
11 | CC(=O)N1CCN(CCOc2cc(C)n(-c3ccc4ccccc4c3)n2)CC1 | – | > 1 | 0.0834 | – | –
12 | Clc1ccc(-n2ccc(OCCCCN3CCSCC3)n2)cc1Cl | – | 0.344 | 0.0102 | – | –
13 | Clc1ccc(-n2nc(OCCN3CCOCC3)cc2-c2ccccc2)cc1Cl | – | > 1 | 0.224 | – | –
14 | Cc1cc(OCCCCN2CCC(c3ccccc3)CC2)nn1-c1ccc(Cl)c(Cl)c1 | – | 0.0267 | 0.026 | – | –
15 | Cc1cc(OCCCN2CCOCC2)nn1-c1ccc(Cl)c(Cl)c1 | – | 0.638 | 0.0189 | – | –
16 | Cc1cc(OCCCN2CCN(C)CC2)nn1-c1ccc(Cl)c(Cl)c1 | – | 0.17 | 0.0133 | – | –
17 | Cc1cc(OCCCCN2CCCCC2)nn1-c1ccc(Cl)c(Cl)c1 | – | 0.0475 | 0.0071 | – | –
18 | C[C@@H]1CN(CCCCOc2ccn(-c3ccc(Cl)c(Cl)c3)n2)C[C@H](C)O1 | – | 0.153 | 0.0148 | – | –
19 | Cc1cc(OCCN2CCCC2)nn1-c1ccc(Cl)c(Cl)c1 | – | 0.483 | 0.0052 | – | –
20 | Clc1ccc(-n2ccc(OCCCN3CCOCC3)n2)cc1Cl | – | 0.394 | 0.0161 | – | –
21 | Cc1c(OCCN2CCOCC2)nn(-c2ccc(Cl)c(Cl)c2)c1C | – | 0.351 | 0.0094 | – | –
22 | CCN(CC)CCCCOc1ccn(-c2ccc(Cl)c(Cl)c2)n1 | – | 0.104 | 0.0172 | – | –
23 | Cc1cc(OCCN2CCOCC2)n(-c2ccc3ccccc3c2)n1 | – | > 1 | > 1 | – | –

Row | Structure (SMILES) | microsomal CLint at 10 µM [1] [µL/min/mg] | Ki [2] [µM] | Ki [3] [µM] | inhibition in vivo at 16 mg/kg [4] [%] | IC50 [5] [µM]
24 | Clc1ccc(-n2ccc(OCCN3CCCCCC3)n2)cc1Cl | – | – | 0.0089 | – | –
25 | Cc1cc(OCCN2CCCCCC2)nn1-c1ccc(Cl)c(Cl)c1 | – | 0.0635 | 0.0094 | – | –
26 | CC(=O)c1c(OCCN2CCOCC2)nn(-c2ccc(Cl)c(Cl)c2)c1C | – | > 1 | 0.741 | – | –
27 | Clc1ccc(-n2ccc(OCCCN3CCCCC3)n2)cc1Cl | – | 0.0372 | 0.0096 | – | –
28 | Clc1ccc(-n2ccc(OCCCCN3CCOCC3)n2)cc1Cl | – | 0.829 | 0.0176 | – | –
29 | Cc1cc(OCCCCN2C[C@@H](C)O[C@@H](C)C2)nn1-c1ccc2ccccc2c1 | – | 0.226 | 0.065 | – | –
30 | OC(COc1ccn(-c2ccc(Cl)c(Cl)c2)n1)CN1CCOCC1 (stereo not drawn) | – | > 1 | 0.128 | – | –
31 | Clc1ccc(-n2ccc(NCCN3CCCCC3)n2)cc1Cl | – | 0.0905 | 0.0095 | – | –
32 | Cc1cc(OCCCCn2ccc3c2CCCC3=O)nn1-c1ccc(Cl)c(Cl)c1 | – | > 1 | > 1 | – | –
33 | COc1ccc(-n2nc(OCCN3CCOCC3)cc2C)cc1 | – | > 1 | > 1 | – | –
34 | CCOC(=O)N1CCN(CCOc2cc(C)n(-c3ccc(Cl)c(Cl)c3)n2)CC1 | 26 | > 1 | 0.044 | – | –
35 | CN(CCCCOc1ccn(-c2ccc(Cl)c(Cl)c2)n1)Cc1ccccc1 | – | 0.0463 | 0.024 | – | –
36 | Clc1ccc(-n2ccc(OCCN3CCOCC3)n2)cc1Cl | – | 0.28 | 0.0082 | – | –
37 | Cc1cc(OCCN2CCOCC2)nn1-c1ccc(Cl)c(Cl)c1 | 12 | > 1 | – | 25 | –
38 | Clc1ccc(-n2ccc(OCCN3CCCCC3)n2)cc1Cl | – | 0.0647 | 0.0167 | – | –
39 | CCN(CC)CCCCOc1cc(C)n(-c2ccc(Cl)c(Cl)c2)n1 | – | 0.0455 | 0.0117 | – | –
40 | Cc1cc(OCCCCN2CCN(C)CC2)nn1-c1ccc(Cl)c(Cl)c1 | – | 0.102 | 0.0099 | – | –
41 | Cc1cc(OCCN2C[C@@H](C)O[C@@H](C)C2)nn1-c1ccc2ccccc2c1 | 25 | > 1 | 0.0338 | – | 7.4
42 | c1cn(C2CCCCC2)nc1OCCN1CCOCC1 | – | > 1 | 0.0231 | 20 | > 10
43 | Cc1cc(OCCN2CCCC2)nn1-c1ccc2ccccc2c1 | – | 0.395 | 0.0099 | – | –
44 | Cc1cc(OCCN2CCN(C)CC2)nn1-c1ccc(Cl)c(Cl)c1 | 3 | > 1 | 0.0111 | 27 | 7.4
45 | Cc1cc(OCCN2CCOCC2)nn1-c1ccccc1 | – | > 1 | > 1 | – | –
46 | Cc1cc(OCCCCN2CCCC2)nn1-c1ccc(Cl)c(Cl)c1 | – | 0.0126 | 0.0069 | – | –

Row | Structure (SMILES) | microsomal CLint at 10 µM [1] [µL/min/mg] | Ki [2] [µM] | Ki [3] [µM] | inhibition in vivo at 16 mg/kg [4] [%] | IC50 [5] [µM]
47 | Cc1cc(SCCN2CCOCC2)nn1-c1ccc(Cl)c(Cl)c1 | 37 | > 1 | 0.0142 | – | > 10
48 | Cc1cc(OCCCCN2CCOCC2)nn1-c1ccc2ccccc2c1 | – | 0.428 | 0.0991 | – | –
49 | CC(C)(C)n1ccc(OCCN2CCOCC2)n1 | – | > 1 | > 1 | – | –
50 | CC(=O)N1CCN(CCCCOc2cc(C)n(-c3ccc4ccccc4c3)n2)CC1 | – | 0.324 | 0.296 | – | –
51 | Clc1ccc(-n2ccc(OCCOCCN3CCCCC3)n2)cc1Cl | – | 0.0142 | 0.0368 | – | –
52 | Cc1cc(OCCCN2CCCC2)nn1-c1ccc(Cl)c(Cl)c1 | – | 0.062 | 0.0104 | – | –
53 | CCN(CC)CCOc1cc(C)n(-c2ccc(Cl)c(Cl)c2)n1 | – | 0.25 | 0.0099 | – | –
54 | Cc1cc(OCCN2CCN(c3ccccc3)CC2)nn1-c1ccc(Cl)c(Cl)c1 | – | 0.563 | 0.0148 | – | –
55 | Cc1c(OCCN2CCOCC2)nn(-c2ccc3ccccc3c2)c1C | – | > 1 | 0.139 | – | –
56 | Clc1ccc(-n2ccc(OCCN3CCOCC3)n2)cc1 | – | 0.357 | 0.0178 | – | –
57 | O=S(=O)(CCN1CCOCC1)OCCOc1ccn(-c2ccc(Cl)c(Cl)c2)n1 | – | > 1 | 0.879 | – | –
58 | Cc1cc(OCCCCN2CCOCC2)nn1-c1ccc(Cl)c(Cl)c1 | – | 0.245 | 0.0133 | – | –
59 | Cc1cc(OCCN2CCCCC2)nn1-c1ccc(Cl)c(Cl)c1 | – | 0.209 | 0.0055 | – | –
60 | Cc1cc(OCCCCn2ccnc2)nn1-c1ccc(Cl)c(Cl)c1 | – | > 1 | 0.854 | – | –
61 | CN1CCN(CCCOc2ccn(-c3ccc(Cl)c(Cl)c3)n2)CC1 | – | 0.307 | 0.0165 | – | –
62 | CC1CCN(CCOc2ccn(-c3ccc(Cl)c(Cl)c3)n2)CC1 | – | 0.0328 | 0.0086 | – | –
63 | Cc1cc(OCCN2CCOCC2)nn1-c1cccc(Cl)c1 | – | > 1 | 0.18 | – | –
64 | Cc1cc(OCCN2CCC(n3cnc4cccnc43)CC2)nn1-c1ccc(Cl)c(Cl)c1 | – | 0.435 | 0.016 | – | –
65 | Cc1cc(OCCNC2CCCCC2)nn1-c1ccc(Cl)c(Cl)c1 | – | 0.0088 | 0.0085 | – | –
66 | O=C(CN1CCCCC1)Nc1ccn(-c2ccc(Cl)c(Cl)c2)n1 | – | > 1 | 0.0808 | – | –
67 | Cc1cc(OCCN2CCCCC2)nn1-c1ccc2ccccc2c1 | – | 0.0847 | 0.01 | – | –
68 | O=C(CCCN1CCC(O)(c2ccc(Cl)cc2)CC1)c1ccc(F)cc1 [HALOPERIDOL] | – | 0.022 | – | – | –
69 | CN1CCN(CC(O)COc2ccn(-c3ccc(Cl)c(Cl)c3)n2)CC1 (stereo not drawn) | – | > 1 | 0.233 | – | –
